Here are results for one compound from patent US20200087340A1, “LIF/LIFR ANTAGONIST IN ONCOLOGY AND NONMALIGNANT DISEASES” (Evestra, Inc., priority 2018, published 2020).

Experiment [1] concerns A549/ATCC. As to the kind of experiment: NCI-60 screening, Non-Small Cell Lung Cancer. Type of experiment: cell-based, human.
In experiment [2] the test system is SF-268. As to the kind of experiment: NCI-60 screening, CNS Cancer. Type of experiment: cell-based, human.
In experiment [3] the test system is SF-295. Nature of the experiment: NCI-60 screening, CNS Cancer. Type of experiment: cell-based, human.
Experiment [4] concerns MALME-3M. Nature of the experiment: NCI-60 screening, Melanoma. The format is cell-based, human.
Experiment [5] relates to SK-OV-3. As to the kind of experiment: NCI-60 screening, Ovarian Cancer. Type of experiment: cell-based, human.
Experiment [6] has as its system DU-145. Nature of the experiment: NCI-60 screening, Prostate Cancer. The format is cell-based, human.
For experiment [7], the system named is MCF7. Nature of the experiment: NCI-60 screening, Breast Cancer. The format is cell-based, human.
In experiment [8] the test system is MDA-MB-468. As to the kind of experiment: NCI-60 screening, Breast Cancer. The format is cell-based, human. The method, then:
EC 330 was also tested using the NCI-60 Screening Methodology. The human tumor cell lines of the cancer screening panel are grown in RPMI 1640 medium containing 5% fetal bovine serum and 2 mM L-glutamine. For a typical screening experiment, cells are inoculated into 96 well microtiter plates in 100 μL at plating densities ranging from 5,000 to 40,000 cells/well depending on the doubling time of individual cell lines. After cell inoculation, the microtiter plates are incubated at 37° C., 5% CO2, 95% air and 100% relative humidity for 24 h prior to addition of experimental drugs. […]
Following drug addition, the plates are incubated for an additional 48 h at 37° C., 5% CO2, 95% air, and 100% relative humidity. […] Bound stain is subsequently solubilized with 10 mM trizma base, and the absorbance is read on an automated plate reader at a wavelength of 515 nm. […] Using the seven absorbance measurements [time zero, (Tz), control growth, (C), and test growth in the presence of drug at the five concentration levels (Ti)], the percentage growth is calculated at each of the drug concentrations levels. Percentage growth inhibition is calculated as: […]
Three dose response parameters are calculated for each experimental agent. […] The drug concentration resulting in total growth inhibition (TGI) is calculated from Ti=Tz. […]

Experiment [9] has as its system T47D cells. Nature of the experiment: Soft agar colony formation assay. Type of experiment: cell-based, human. The following applies: 100 nM concentration. The method, then: Colonies of cancer cells formed in soft agar in the presence and absence of the testing compounds is a standard assay to interpret in-vitro tumorigenic potential in the basal layer. Agar was prepared by mixing 1% DNA grade agar melted and cooled to 40° C. with an equal volume of (2×) Dulbecco's Modified Eagle's Medium (DMEM) to obtain 0.5% agar that was dispersed in a 6-well plate and allowed to solidify. A total of 0.6% agar was prepared in RPMI medium and mixed together with T47D cells (0.5×10^6 cells/mL) and immediately plated on the basal layer in the presence or absence of testing compounds. The cultures were incubated at 37° C. in a CO2 incubator for 2 weeks, and colonies were stained with 0.005% crystal violet and observed under a light microscope.

Experiment [10] relates to IGROV1 (Ovarian) Xenograft. Nature of the experiment: Tumor xenograft study, IGROV1. Type of experiment: in vivo, mice. On the procedure: Uniform suspensions of human breast cancer MDA-MB-231 and human ovarian cancer IGROV1 cells (2×10^6) in 100 μL (0.02 carboxymethyl cellulose in phosphate buffered saline) were injected subcutaneously into the right and left flanks of 4- to 5-week-old female athymic nude mice (Charles River Laboratories). After 10 days, when the tumor […] reaches 100 mm^3, the mice were randomly allocated to 3 groups of each containing 6 animals. […] All drug was suspended in PBS followed by sonication (15 seconds with an intermittent interval of 5 seconds) for 1 minute. Tumors were allowed to reach palpability before drug intervention. Tumor size was measured every 3 days using digital Vernier Calipers and tumor volume was calculated using the ellipsoid formula [D×(d2)]/2, where D is the large diameter of the tumor and d represents the small diameter. On day 31, the mice were euthanized and tumors were harvested for protein and gene expression studies. […] FIG. 6B depicts a graph of tumor volume vs. time for the administration of EC300 at 2.5 mg/kg twice weekly in the MDA-MB-231 (TNBC) Xenograft. […] FIG. 7 depicts a graph of tumor volume vs. time for the administration of EC300 at 5 mg/kg 5 days per week in the IGROV1 (Ovarian) Xenograft. […] STAT3 phosphorylation is reduced in tumors that underwent treatment compared to control which is an indication of LIF downstream target.

For `C#CC(F)(F)[C@]1(O)CCC2C3CCC4=CC(=O)CCC4=C3C(c3ccc(C4CC4)cc3)C[C@@]21C` (stereo partly drawn) [EC330, 17α-(1,1-difluoro-2-propyn-1-yl)-17β-hydroxy-11β-[4-p-(cyclopropyl)phenyl]estra-4,9-dien-3-one], the “TGI (log10TGI)” value is recorded as −4.61 in experiment [1]; −6.43 in [2]; less than −8.00 in [3]; less than −8.00 in [4]; −6.55 in [5]; −4.75 in experiment [6]. In addition, the “TGI (log10TGI)” value is −4.96 in experiment [7] and −6.09 in experiment [8]. Also, the colonies formed entry in [9] is “complete inhibition or no colonies were formed”. Also, the antitumor activity result in [10] (5 mg/kg (5 days per week), 4 weeks, IGROV1 xenograft) is reported as “potent antitumor activity”. Also, the “apoptosis in xenograft tumors” value in [10] (IGR-OV1 ovarian cancer xenograft tumors) was “induced apoptosis dose dependently”. Further, in [10] (ovarian cancer model), the tumor growth result is on record as “significantly reduced”. In [10] (treated compared to control), the “STAT3 phosphorylation in tumors” value is “reduced”.
